Results as given in US10576085B2, “Substituted aminopurine compounds, compositions thereof, and methods of treatment therewith” (Signal Pharmaceuticals, LLC, priority 2016, dated 2020).

Experiments:
Assay in all cases: Proliferation, CellTiter-Glo, 72 h
Type in all cases: cell-based
[1] = test system: SW48; conditions: Homo sapiens; SW48, CRC; CTNNB1 (S33Y); EGFR (G179S); β-catenin Active
[2] = test system: Colo 205; conditions: Homo sapiens; Colo 205, CRC; BRAF (V600E); β-catenin status N/A
Protocol: HCC cell lines were treated with DMSO or increasing concentrations of Compound 1 for 72 h. Specifically, Compound 1 at various concentrations in dimethyl sulfoxide (DMSO) was spotted via an acoustic dispenser (EDC ATS-100) into an empty 384-well plate. Compound 1 was spotted in a 10-point serial dilution fashion (3-fold dilution) in duplicate within the plate. Replicates of plates spotted with Compound 1 were made for use with different cell lines. After compound plate replication, all plates were sealed (Agilent ThermoLoc) and stored at −20° C. for up to 1 month. When ready for testing, plates were removed from the freezer, thawed, and unsealed just prior to the addition of the test cells.
Prior to testing, cells were grown and expanded in culture flasks to provide sufficient amounts of starting material. Cells were then diluted to the appropriate densities and added directly to the compound-spotted 384-well plates. […] At the time when compound was added (t0), initial cell number was assessed via a viability assay (Cell Titer-Glo) by quantifying the level of luminescence generated by ATP present in viable cells. After 72 h, cell viability of compound-treated cells was assessed via Cell Titer-Glo and luminescence measurement. The apoptotic response to Compound 1 was assessed by quantifying the activities of caspase 3 and caspase 7 (Caspase 3/7-Glo) in treated cells and DMSO control cells. […]

[3] = test system: AGS; conditions: Homo sapiens, Gastric, CTNNB1 (G43E), KRAS (G12D), β-catenin Active

For C[C@]1(C(N)=O)CC[C@@H](n2c(Nc3c(Cl)cc(Cl)cc3Cl)nc3cnc(N[C@@H]4CCOC[C@H]4F)nc32)CC1 [Compound 1, cis-4-[2-{[(3S,4R)-3-fluorooxan-4-yl]amino}-8-(2,4,6-trichloroanilino)-9H-purin-9-yl]-1-methyl cyclohexane-1-carboxamide], the IC50 [1] was 9 nM, the IC50 [2] was 36 nM and the IC50 [3] was 28 nM.
